Assay results reported in US10174056B2, “Substituted pyrrolo[2,3-d]pyrimidines as janus kinase inhibitors” (WUXI FORTUNE PHARMACEUTICAL CO., LTD, priority 2015, dated 2019).

Assays:
JAK1 = molecular target: T1, JAK1 (Homo sapiens, UniProt P23458); experiment: Test for in vitro activity of JAK1 kinase (LANCE Ultra ULight peptide); format: biochemical; conditions: recombinant human JAK1, 38 uM ATP, 90 min
T1 construct: purchased Life technology
Description: (§1) Test for in vitro activity of Jak1, Jak2, and Jak3 Kinase
(§2) Recombinant human […] of JAK1, JAK2 and JAK3 were purchased from Life technology. LANCE Ultra ULight™-JAK-1 (Tyr1023) peptide and LANCE Eu-W1024 Anti-phosphotyrosine (PT66) were purchased from PerkinElmer. Multimode ELISA, Envison(PerkinElmer) reader was used.
(§3) The test compound was diluted according to gradient of three times concentration with a final concentration of from 10 uM to 0.17 nM at 11 concentrations totally, each concentration with two complex holes, and the content of DMSO in the detection was 1%.
(§4) 2 nM of JAK1 Protein kinase, 50 nM of LANCE Ultra ULight™-JAK-1(Tyr1023) peptide, 38 uM of ATP, 50 mM of HEPES (pH 7.5), 10 mM of MgCl2, 1 mM of EGTA, 2 mM of DTT, 0.01% BRIJ-35. Checker board is White Proxiplate 384-Plus plate (PerkinElmer). The reaction was carried out at room temperature for 90 min and the reaction system was 10 ul.
(§5) 10 ul detection reagent was added to reaction plate, wherein the final concentration of LANCE Eu-W1024 Anti-phosphotyrosine (PT66) was 2 nM, the final concentration of EDTA was […], incubated at room temperature for 60 min, with Envison reader.
(§6) The reading was converted to inhibition ratio (%) by the following formula: the inhibition ratio (%)=([…])/(Max−Min)×100%.

JAK2 = molecular target: T2, JAK2 (Homo sapiens, UniProt O60674); experiment: Test for in vitro activity of JAK2 kinase (LANCE Ultra ULight peptide); format: biochemical; conditions: recombinant human JAK2, 12 uM ATP, 60 min
T2 construct: purchased Life technology
T2 sequence (O60674 whole entry): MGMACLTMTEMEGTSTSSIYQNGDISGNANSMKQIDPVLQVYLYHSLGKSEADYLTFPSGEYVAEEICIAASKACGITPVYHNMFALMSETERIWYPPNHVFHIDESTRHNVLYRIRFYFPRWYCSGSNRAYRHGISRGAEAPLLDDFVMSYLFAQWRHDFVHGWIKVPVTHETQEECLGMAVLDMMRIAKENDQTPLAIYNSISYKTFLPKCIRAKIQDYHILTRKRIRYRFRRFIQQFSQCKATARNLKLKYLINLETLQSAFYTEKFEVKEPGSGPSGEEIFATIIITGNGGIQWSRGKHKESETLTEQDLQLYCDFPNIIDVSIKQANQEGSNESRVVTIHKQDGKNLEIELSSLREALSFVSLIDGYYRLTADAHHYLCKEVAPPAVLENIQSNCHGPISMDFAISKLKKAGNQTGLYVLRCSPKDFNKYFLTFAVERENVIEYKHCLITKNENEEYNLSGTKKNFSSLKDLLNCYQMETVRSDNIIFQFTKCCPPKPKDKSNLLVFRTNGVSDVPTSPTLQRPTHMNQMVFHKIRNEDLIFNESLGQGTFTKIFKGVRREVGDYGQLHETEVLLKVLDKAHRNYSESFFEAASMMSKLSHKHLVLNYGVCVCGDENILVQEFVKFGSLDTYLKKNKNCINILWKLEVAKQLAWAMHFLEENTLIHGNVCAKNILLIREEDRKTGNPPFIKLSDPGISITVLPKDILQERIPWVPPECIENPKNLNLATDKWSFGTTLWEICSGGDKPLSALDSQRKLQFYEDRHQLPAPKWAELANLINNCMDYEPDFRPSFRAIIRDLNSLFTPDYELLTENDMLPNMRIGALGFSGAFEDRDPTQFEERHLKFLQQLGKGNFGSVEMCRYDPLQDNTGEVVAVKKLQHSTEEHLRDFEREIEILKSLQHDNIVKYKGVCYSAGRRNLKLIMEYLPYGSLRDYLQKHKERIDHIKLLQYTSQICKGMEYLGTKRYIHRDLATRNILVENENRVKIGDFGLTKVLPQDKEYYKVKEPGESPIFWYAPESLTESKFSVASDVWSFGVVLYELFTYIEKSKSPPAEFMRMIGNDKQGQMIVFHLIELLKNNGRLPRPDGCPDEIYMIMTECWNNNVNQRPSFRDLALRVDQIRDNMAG
Description: as §1, §2, §3
as §4, with “0.02 nM” for “2 nM”, “of JAK2” for “of JAK1”, “peptide, 12” for “peptide, 38”, “for 60” for “for 90”
as §5, §6

[1] = Pharmacokinetic (PK) test in mice; format: in vivo, DBA/1 mice; conditions: for bioavailability / AUC(0-inf) / Cmax / half-life: mouse, plasma, po, DBA/1 mice, mean; for bioavailability: gavage vs tail vein injection; for AUC(0-inf) / Cmax / half-life: tail vein injection and gavage
Description: Pharmacokinetic (PK) Test
The clear solution obtained by dissolving the test compound was respectively administrated by tail vein injection and gavage into the mice DBA/1 mice (overnight fasting, 7 to 8 weeks old). After administration of the test compound, the mice in the vein injection group at 0.083, 0.25, 0.5, 1, 2, 4, 8 and 24 hours, and gavage group at 0.25, 0.5, 1, 2, 4, 8 and 24 hours, blood is collected from the mandibular vein and centrifuged to obtain plasma. The plasma concentration was determined by LC-MS/MS. The pharmacokinetic parameters were calculated by non-compartmental model linear logarithmic trapezoid method with using WinNonlin™ Version 6.3 pharmacokinetic software.

[2] = test system: rat adjuvant arthritis model; experiment: Rat adjuvant-induced arthritis model efficacy test; format: in vivo; conditions: Lewis rats, oral; for AUC (%): two weeks of administration from day 13; for arthritis inhibitory activity (in words): swollen foot volume and score
Description: Rat Adjuvant-Induced Arthritis Model Efficacy Test
The effect of the compounds of the present invention on the treatment of arthritis was verified by rat adjuvant arthritis models.
Female, Lewis rats with body weight 160-180 g were anesthetized with isoflurane and was injected with 0.1 ml of mycobacterium tuberculosis suspension subcutaneously in the left posterior foot. After modeling for 13 days, the corresponding test compound was administrated, such as that the rats were respectively administrated with 1 mpk, 3 mpk, 10 mpk of the test compound WX614, 10 mpk of the test compound WX552, and 10 mpk of the test compound WX591 dissolved in a mixed solvent of DMSO/PEG400/H2O, and orally administered to female Lewis rats (10 rats in each dose group). Two weeks after continuous administration, the state of the rats was observed and the volume of the swollen foot was recorded and scored.

[3] = test system: mouse collagen-induced arthritis model; experiment: Mouse collagen-induced arthritis model efficacy test; format: in vivo, DBA/1 male mice; conditions: CIA mice, oral, 2 weeks
Description: Mouse Collagen-Induced Arthritis Model Efficacy Test
The effect of the compounds of the present invention on the treatment of arthritis was verified by the mouse collagen-induced arthritis model.
The DBA/l male mice were selected and injected subcutaneously with the emulsions of collagen and Freund's complete adjuvant at base of tail on day 0 and day 21, and on day 29 the mice was divided into groups. The compound WX6144 (3 mpk, 10 mpk, 30 mpk) was dissolved in DMSO/PEG400/H2O [5/20/75 (v/v/v)] and administered orally to CIA mice (Shanghai SLAC Laboratory Animal Co., Ltd, 10 mice in each dose group), and the mice were continuously administrated for 2 weeks, the weight of mice were recorded and the arthritis of mice was clinically scored.

T1 sequence (P23458 whole entry): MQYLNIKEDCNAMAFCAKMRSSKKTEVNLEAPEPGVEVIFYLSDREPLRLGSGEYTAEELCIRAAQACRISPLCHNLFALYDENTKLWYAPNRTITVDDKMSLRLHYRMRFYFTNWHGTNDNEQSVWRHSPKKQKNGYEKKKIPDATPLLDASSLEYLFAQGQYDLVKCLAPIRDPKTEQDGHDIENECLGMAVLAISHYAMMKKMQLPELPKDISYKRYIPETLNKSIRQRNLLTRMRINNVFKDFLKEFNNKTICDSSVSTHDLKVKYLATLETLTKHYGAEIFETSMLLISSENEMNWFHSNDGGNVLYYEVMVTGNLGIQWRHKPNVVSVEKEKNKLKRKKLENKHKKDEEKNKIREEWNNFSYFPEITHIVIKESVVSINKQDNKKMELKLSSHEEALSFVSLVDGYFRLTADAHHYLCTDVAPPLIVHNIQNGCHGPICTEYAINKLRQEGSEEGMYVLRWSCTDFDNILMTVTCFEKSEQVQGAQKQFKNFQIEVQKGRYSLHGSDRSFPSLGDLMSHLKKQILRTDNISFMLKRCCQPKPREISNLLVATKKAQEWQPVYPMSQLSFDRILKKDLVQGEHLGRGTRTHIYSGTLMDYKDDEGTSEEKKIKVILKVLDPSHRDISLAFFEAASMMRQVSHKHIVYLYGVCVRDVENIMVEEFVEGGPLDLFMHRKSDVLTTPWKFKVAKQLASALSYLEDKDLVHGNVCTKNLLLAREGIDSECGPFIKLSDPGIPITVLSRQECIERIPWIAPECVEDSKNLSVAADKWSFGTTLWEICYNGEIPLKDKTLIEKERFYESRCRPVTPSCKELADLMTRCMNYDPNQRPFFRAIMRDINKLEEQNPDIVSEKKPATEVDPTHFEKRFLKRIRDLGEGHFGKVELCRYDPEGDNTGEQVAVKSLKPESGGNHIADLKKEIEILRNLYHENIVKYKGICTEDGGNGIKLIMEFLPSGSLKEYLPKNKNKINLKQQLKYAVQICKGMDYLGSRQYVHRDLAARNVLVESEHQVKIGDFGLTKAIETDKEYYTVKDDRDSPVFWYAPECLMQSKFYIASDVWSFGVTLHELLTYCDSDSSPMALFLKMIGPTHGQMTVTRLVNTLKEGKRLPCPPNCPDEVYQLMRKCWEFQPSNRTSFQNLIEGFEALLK

Row | Structure (SMILES) | IC50 (JAK1) [µM] | IC50 (JAK2) [µM] | other results
1 | CN(c1ncnc2[nH]ccc12)C1CCn2cc(CO)nc2C1 (centres unmarked) [WX551] | 0.1 to 1 | > 1 | 
2 | CN(c1ncnc2[nH]ccc12)C1CCn2cc(C(=O)NCC(F)(F)F)nc2C1 (centres unmarked) [WX579] | 0.1 to 1 | > 1 | 
3 | CCOC(=O)c1cn2c(n1)CC(N(C)c1ncnc3[nH]ccc13)CC2 (centres unmarked) [WX550, ethyl 7-[methyl(7H-pyrrolo[2,3-d]pyrimidine-4-yl)amino]-5,6,7,8-tetrahydroimidazo[1,2-a]pyridine-2-carboxylate] | 0.1 to 1 | > 1 | 
4 | CN(c1ncnc2[nH]ccc12)C1CCn2cc(C(=O)NCC(F)F)nc2C1 (centres unmarked) [WX580] | 0.1 to 1 | > 1 | 
5 | CN(c1ncnc2[nH]ccc12)C1CCn2cc(C(=O)NCC#N)nc2C1 (centres unmarked) [WX581] | 0.1 to 1 | > 1 | 
6 | CN(c1ncnc2[nH]ccc12)C1CCn2cc(C#N)nc2C1 (racemic) [WX591, 7-[methyl-[7 hydropyrrolo[2,3-d]pyrimidine-4-yl]amino]-5,6,7,8-tetrahydroimidazo [1,2-a]pyridine-2-nitrile] | 0.01 to 0.1 | 0.1 to 1 | oral bioavailability and exposure in mice (in words) [1]: good oral bioavailability and higher exposure; bioavailability [1]: 87%; AUC(0-inf) [1]: 10.5 µM·h; Cmax [1]: 3.02 µM; half-life [1]: 2.26 h; AUC (%) ([2]; 10 mg/kg): 44.7%; arthritis inhibitory activity (in words) [2]: good arthritis inhibitory activity
7 | CN(c1ncnc2[nH]ccc12)C1CCn2cc(CC#N)nc2C1 (racemic) [WX552, 2-[7-[methyl(7H-pyrrolo[2,3-d]pyrimidine-4-yl)amino]-5,6,7,8-tetrahydroimidazo[1,2-a]pyridine-2-yl]acetonitrile] | 0.01 to 0.1 | 0.1 to 1 | oral bioavailability and exposure in mice (in words) [1]: good oral bioavailability and higher exposure; bioavailability [1]: 74.4%; AUC(0-inf) [1]: 11.4 µM·h; Cmax [1]: 3.72 µM; half-life [1]: 1.18 h; AUC (%) ([2]; 10 mg/kg): 31.7%; arthritis inhibitory activity (in words) [2]: good arthritis inhibitory activity
8 | CN(c1ncnc2[nH]ccc12)C1CCn2cc(C(=O)NCCS(C)(=O)=O)nc2C1 (centres unmarked) [WX592] | > 1 | > 1 | 

Continued, in another order:

Row | IC50 (JAK1) [µM] | IC50 (JAK2) [µM] | Structure (SMILES) | other results
9 | 0.1 to 1 | > 1 | CNC(=O)c1cn2c(n1)CC(N(C)c1ncnc3[nH]ccc13)CC2 (centres unmarked) [WX604] | 
10 | ≤ 0.01 | 0.01 to 0.1 | CN(c1ncnc2[nH]ccc12)[C@H]1CCn2cc(C#N)nc2C1 (single isomer, unassigned) [WX614, (S or R) 7-[methyl-[7 hydropyrrolo[2,3-d]pyrimidine-4-yl]amino]-5,6,7,8-tetrahydroimidazo[1,2-a]pyridine-2-nitrile] | oral bioavailability and exposure in mice (in words) [1]: good oral bioavailability and higher exposure; bioavailability [1]: 73.9%; AUC(0-inf) [1]: 10.2 µM·h; Cmax [1]: 3.09 µM; half-life [1]: 1.76 h; AUC (%) ([2]; 1 mg/kg): 20.2%; AUC (%) ([2]; 3 mg/kg): 50.2%; AUC (%) ([2]; 10 mg/kg): 61.8%; arthritis inhibitory activity (in words) [2]: good arthritis inhibitory activity; AUC (%) ([3]; 3 mg/kg): 42.4%; AUC (%) ([3]; 10 mg/kg): 51.3%; AUC (%) ([3]; 30 mg/kg): 82.5%; therapeutic effect on mouse rheumatoid arthritis (in words) ([3]; clinical score): significant therapeutic effect
11 | > 1 | > 1 | CN(c1ncnc2[nH]ccc12)C1CCn2cc(C(=O)NC3CC(F)(F)C3)nc2C1 (centres unmarked) [WX593, N-(3,3-difluorocyclobutyl)-7-[methyl(7H-pyrrolo[2,3-d]pyrimidine-4-yl]amino]-5,6,7,8-tetrahydroimidazo [1,2-a]pyridine-2-carboxamide] | 
12 | > 1 | > 1 | CNCc1cn2c(n1)CC(N(C)c1ncnc3[nH]ccc13)CC2 (centres unmarked) [WX605, N-methyl-N-[2-(methylaminomethyl)-5,6,7,8-tetrahydroimidazo[1,2-a]pyridine-7-yl]-7H-7H-pyrrolo[2,3-d]pyrimidine-4-amine] | 
13 | > 1 | > 1 | CN(c1ncnc2[nH]ccc12)C1CCn2cc(CC#N)nc2C1 (single isomer, unassigned) [WX612, (S or R) 2-[7-[methyl(7H-pyrrolo[2,3-d]pyrimidine-4-yl)amino]-5,6,7,8-tetrahydroimidazo[1,2-a]pyridine-2-yl]acetonitrile] | 
14 | 0.1 to 1 | > 1 | CN(c1ncnc2[nH]ccc12)C1CCn2cc(CNS(C)(=O)=O)nc2C1 (centres unmarked) [WX606, N-((7-(methyl-(7H-pyrrolo[2,3-d]pyrimidine-4-yl)amine)-5,6,7,8-tetrahydroimidazo[1,2-a]pyridine-2-yl)methyl)methanesulfonamide] | 
15 | > 1 | > 1 | CN(c1ncnc2[nH]ccc12)[C@@H]1CCn2cc(C#N)nc2C1 (single isomer, unassigned) [WX615, (R or S) 7-[methyl-[7 hydropyrrolo[2,3-d]pyrimidine-4-yl]amino]-5,6,7,8-tetrahydroimidazo [1,2-a]pyridine-2-nitrile] | 
16 | 0.01 to 0.1 | 0.1 to 1 | CN(c1ncnc2[nH]ccc12)C1CCn2cc(CC#N)nc2C1 (single isomer, unassigned) [WX613, (R or S)2-[7-[methyl(7H-pyrrolo[2,3-d]pyrimidine-4-yl)amino]-5,6,7,8-tetrahydroimidazo [1,2-a]pyridine-2-yl]acetonitrile] | 
